# Assay results taken from patent publication US8022056B2, “Compositions and methods for the treatment of cancer” (Tautatis, Inc, priority 2006, dated 2011).
# Read-outs that look alike come from different tables or passages of the source.
# Legend:
# ERK2 = ERK2 (Homo sapiens, UniProt P28482); test: Kinase inhibition under standard conditions, ERK2; assay type: biochemical
# NCI-60 panel cell lines = test: NCI-60 panel growth inhibition screen; assay type: cell-based; conditions: for GI50: nominal concentration
# From the text: FIGS. 7a-h show the inhibitory potencies of compound 1 in the cell lines of the NCI panel from various cancers. The growth of cells treated with various concentrations of compound 1 was expressed in reference to untreated controls (100%) after 48 hr exposure. Negative growth values represent cell death. Actual concentrations of compound 1 are about two times lower than nominal due to well binding in the 96-well plate format.
# FIG. 8 represents the GI50 (50% growth inhibition, cross-hatch bars) and TGI (total growth inhibition, solid bars) values of all cells in the NCI-60 panel in relation to the attainable free mouse plasma concentration of orally applied compound 1, corrected for the reduction in actual inhibitor concentration by well binding. The oncogenic mutation spectrum of the cell lines is presented at the bottom.
# To further exemplify the breadth of anti-tumor activity of compounds 1-4 the NCI-60 panel was screened with compound 1. The spectrum of verified oncogenic driver mutations in these cell lines was recently elucidated to encompass mutations in raf, ras, CDKN2A (cdk inhibitor), p53, PI3K, PTEN, EGFR, APC, FLT3, RB1 among others. Cell lines generally have several of these mutations representative of stage III and IV cancers [Ikediobi et al., Mol. Cancer. Ther. 5, 2606-2612 (2006)]. […] The average concentration for total growth inhibition (TGI) was thus at 200 nM, i.e. about 10-times GI50. At sustained free plasma concentrations in vivo of about 200 nM, that can be achieved with practical forms of oral dosing and in the absence of special formulations, all cell lines would be inhibited by more than 50% without exception, and more than half would show no growth at all or would be killed (FIG. 8).
# [1] = Pharmacokinetics in mouse plasma and brain after oral dosing; assay type: in vivo
# Method: Standard curves were established for the compound 1 reextracted from serum samples and brain homogenates, using the related compound 2 as internal standard. 200 μl serum samples prepared from mouse or human blood, and homogenates of 0.2 g mouse brain tissue in 0.3 ml saturated NaCl solution, were spiked with a range of concentrations of compound 1 at 10 nM, 30 nM, 100 nM, 300 nM, 1 μM, 3 μM in a mix with 500 nM of compound 2 as internal standard in DMSO (final DMSO not exceeding 2%). Serum and homogenate samples were mixed with 100 μl conc. Ammonia, and 200 μl sat'd NaCl solution was added to the serum samples. […] were reextracted twice with 2 ml ethylacetate each by vigorous vortexing for 1 min. Combined organic extracts were evaporated in a SpeedVac, and residues were taken up in 300 μl of 40% water/60% methanol (0.1% formic acid). Samples were analyzed by reversed phase HPLC on a […] Zorbox 300SB-C8 2.1×150 mm column at 45° C. […]
# Mice were dosed at 12.5 mg/kg in a vehicle of 50 mM (−)-lactic acid in 50% PEG400, and sacrificed by cardiac puncture after various time intervals. […] Reextraction was performed, and ratios of analyte 1 and internal standard 2 were determined as described above. The concentrations of compound 1 in the serum and brain samples was calculated from the standard curve.
# PKC = test: Kinase inhibition under standard conditions, PKC; assay type: biochemical
# OVCAR-3 xenograft = test: Mouse xenograft model OVCAR-3; assay type: in vivo; conditions: Ovarian, p53; oral twice daily dosing
# Method: The efficacy of the compound of the formula 1 was confirmed in mouse tumor xenograft models, employing the NMRI(nu/nu) strain of mice. For example, cells from the human tumor cell lines MDA-MB-231, U373, and HT29 were pre-incubated subcutaneously in several nude mice to select for the most robustly growing cell population. After having grown to a sufficient size after 2-3 weeks, a piece of about 2 mm^3 volume of the most suitable tumor was transplanted subcutaneously into the region of the thoracic mammary fat pads, an area ensuring a high degree of vascularization of the grafted tissue. […] During the course of the treatment, the weight of the animals and the size of the transplanted tumor was monitored three times a week. […] These doses are best determined separately for each individual mouse strain employed.
# To establish a solid tumour 3×10^6 tumor cells suspended in 100 μl of serum free medium (RPMI) were inoculated subcutaneously into the region of the thoracic mammary fat pads of 5 Male NMRI(nu/nu) mice of 8-10 weeks of age. […] During the course of the treatment body weight changes and tumor growth were recorded three times a week. Growth curves were plotted together with standard deviations and the significance of differences was determined using an unpaired t-test in FIG. 11. […]
# Chain of ERK2 (P28482 whole entry, species assumed): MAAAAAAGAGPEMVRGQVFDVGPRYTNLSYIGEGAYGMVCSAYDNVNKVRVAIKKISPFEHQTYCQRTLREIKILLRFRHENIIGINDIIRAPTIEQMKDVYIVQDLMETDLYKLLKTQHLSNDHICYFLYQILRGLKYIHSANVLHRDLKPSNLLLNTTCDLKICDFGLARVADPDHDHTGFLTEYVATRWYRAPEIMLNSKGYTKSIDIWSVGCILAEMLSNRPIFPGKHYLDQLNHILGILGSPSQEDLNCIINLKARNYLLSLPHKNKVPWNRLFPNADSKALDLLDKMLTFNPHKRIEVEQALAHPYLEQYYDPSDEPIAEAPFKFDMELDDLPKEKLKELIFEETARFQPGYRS
smiles,measurement,setting,value
CNC(=O)[C@@]1(N)C[C@H]2O[C@]1(C)n1c3ccccc3c3c4c(c5c6ccccc6n2c5c31)C(=O)NC4 [Compound 1],IC50,ERK2,64 nM
same,average concentration for total growth inhibition (TGI),NCI-60 panel cell lines; 48 hr exposure,200 nM
same,cell kill of HT29 cell line in vitro,"NCI-60 panel cell lines; HT29, highest exposures",cannot be killed
same,anti-proliferative activity across panel,"NCI-60 panel cell lines; lung, colon, brain, skin, ovarian, kidney, prostate, breast cancer lines",Significant anti-proliferative activity was seen in all cell lines
same,GI50,"NCI-60 panel cell lines; 48 hr exposure, read-out: GI50 potency range across cell lines",≤ 150 nM
same,GI50,"NCI-60 panel cell lines; 48 hr exposure, read-out: average 50% growth inhibition (GI50) across all cell lines",32 nM
same,maximal free plasma concentration sustained over prolonged periods,"[1]; in vivo, practical forms of oral dosing",about 200 nM
same,penetration of the CNS,"[1]; mouse plasma and brain, oral dosing",good penetration of the CNS
same,IC50,PKC,1280 nM
same,Mean % Inhibition,OVCAR-3 xenograft,78%
same,N tumors with no/neg. growth,OVCAR-3 xenograft,4 of 11
